Test results from paper PMC10854695, “Using Flavonoid Substitution Status to Predict Anticancer Effects in Human Melanoma Cancers: An In Vitro Study” (Cancers, 2024).

How the values were obtained:
A375 melanoma cells [1] = test: MTT cell viability assay, A375; conditions: Homo sapiens;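 also: Read-out is formazan absorbance at 570 nm after 2 h with MTT, with compounds in at most 0.1% v/v DMSO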
A375 melanoma cells [2] = test: Neutral red uptake (NRU) assay, A375; conditions: Homo sapiens, read-out: IC50, cytotoxic activity, NRU assay
Description: The NRU (neutral red uptake) was conducted as previously described by Szoka and co-workers, with some modifications [22]. Briefly, melanoma cells and fibroblasts were seeded in microplates at the density of 1 × 10^4 cells per well and allowed to adhere for 24 h. […] After treatment, the culture medium was replaced with a neutral red solution (40 µg/mL). An additional 2 h of incubation was performed. The neutral red solution was then removed and the neutral red accumulated in the cells was dissolved in 50% EtOH with 1% of the glacial acetic acid. The absorbance was estimated at 540 nm and IC50 values were calculated using GraphPad Prism software (GraphPad Software, San Diego, CA, USA).

C32 melanoma cells [3] = test: MTT cell viability assay, C32; conditions: Homo sapiens, read-out: IC50, cytotoxic activity, MTT test;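 also: MTT added for 2 h, cells lysed in DMSO, absorbance read at 570 nm, compound vehicle kept at or below 0.1% DMSO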
Description: The MTT colorimetric assay was performed as a preliminary evaluation of the cytotoxicity of the selected flavonoids according to the method described and validated by Strawa et al. [21]. Briefly, melanoma cells and fibroblasts were seeded in 96-well microplates at a density of 1 × 10^4 cells per well. Fibroblasts were used as a control cell line in order to assess the selectivity of the compounds. […] Subsequently, the cells were washed with PBS, incubated with MTT solution for 2 h, and lysed with dimethyl sulfoxide (DMSO) supplemented with 1% (v/v) Sorensen’s glycine buffer. The absorbance was measured using a microplate reader (EPOCH 2, BioTek, Winooski, VT, USA) at a wavelength of 570 nm. The compounds were used at a final DMSO concentration of no more than 0.1% (v/v) in each well. The results were generated from at least three independent experiments. […] The IC50 values were calculated with GraphPad Prism 9 software (GraphPad Software, San Diego, CA, USA).

[4] = MTT cell viability assay, normal cells; conditions: human, human skin fibroblasts (CCD25Sk);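 also: fibroblasts served as non-cancer comparison line for selectivity versus melanoma cells, MTT reduction read as absorbance at 570 nm after 2 h dye exposure, compounds in ≤0.1% DMSO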
C32 melanoma cells [5] = test: Neutral red uptake (NRU) assay, C32; conditions: Homo sapiens
[6] = Neutral red uptake (NRU) assay, normal cells; conditions: human, human skin fibroblasts (CCD25Sk)
[7] = A-375, 24 h, read-out: IC50, cytotoxic activity, MTT test, A375, 24 h
[8] = A-375, 48 h, read-out: IC50, cytotoxic activity, MTT test, A375, 48 h
[9] = A-375, 72 h, read-out: IC50, cytotoxic activity, MTT test, A375, 72 h
[10] = C32, 24 h, read-out: IC50, cytotoxic activity, NRU assay, C32, 24 h
[11] = C32, 48 h, read-out: IC50, cytotoxic activity, NRU assay, C32, 48 h
[12] = C32, 72 h, read-out: IC50, cytotoxic activity, NRU assay, C32, 72 h

| SMILES | IC50 (A375 melanoma cells [1]; [7]) [µM] | IC50 (A375 melanoma cells [1]; [8]) [µM] | IC50 (A375 melanoma cells [1]; [9]) [µM] | IC50 (A375 melanoma cells [2]; A-375, 24 h) [µM] | IC50 (A375 melanoma cells [2]; A-375, 48 h) [µM] | IC50 (A375 melanoma cells [2]; A-375, 72 h) [µM] | IC50 (C32 melanoma cells [3]; C32, 24 h) [µM] | IC50 (C32 melanoma cells [3]; C32, 48 h) [µM] | IC50 (C32 melanoma cells [3]; C32, 72 h) [µM] | IC50 at 24 h [4] [µM] | IC50 at 48 h [4] [µM] | IC50 at 72 h [4] [µM] | IC50 (C32 melanoma cells [5]; [10]) [µM] | IC50 (C32 melanoma cells [5]; [11]) [µM] | IC50 (C32 melanoma cells [5]; [12]) [µM] | IC50 at 24 h [6] [µM] | IC50 at 48 h [6] [µM] | IC50 at 72 h [6] [µM] |
| --- | --- | --- | --- | --- | --- | --- | --- | --- | --- | --- | --- | --- | --- | --- | --- | --- | --- | --- |
| O=c1cc(-c2ccc(O)cc2)oc2c([C@@H]3O[C@H](CO)[C@@H](O)[C@H](O)[C@H]3O)c(O)cc(O)c12 [Compound 2, apigenin 8-C-glucoside] | > 200 | > 200 | > 200 | > 200 | > 200 | > 200 | > 200 | > 200 | > 200 | > 200 | > 200 | > 200 | > 200 | > 200 | > 200 | > 200 | > 200 | > 200 |
| O=c1cc(-c2ccc(O)cc2)oc2cc(OC3OC(CO)C(O)C(O)C3O)cc(O)c12 (stereo not drawn) [Compound 3, apigenin 7-O-glucoside] | > 200 | > 200 | > 200 | > 200 | > 200 | > 200 | > 200 | > 200 | > 200 | > 200 | > 200 | > 200 | > 200 | > 200 | > 200 | > 200 | > 200 | > 200 |
| O=C(O)C1OC(Oc2cc(O)c3c(=O)cc(-c4ccc(O)cc4)oc3c2)C(O)C(O)C1O (stereo not drawn) [Compound 4, apigenin 7-O-glucuronide] | > 200 | > 200 | > 200 | > 200 | > 200 | > 200 | > 200 | > 200 | > 200 | > 200 | > 200 | > 200 | > 200 | > 200 | > 200 | > 200 | > 200 | > 200 |
| CC1OC(OCC2OC(Oc3cc(O)c4c(=O)cc(-c5ccc(O)cc5)oc4c3)C(O)C(O)C2O)C(O)C(O)C1O (stereo not drawn) [Compound 5, apigenin 7-O-rutinoside] | > 200 | > 200 | > 200 | > 200 | > 200 | > 200 | > 200 | > 200 | > 200 | > 200 | > 200 | > 200 | > 200 | > 200 | > 200 | > 200 | > 200 | > 200 |
| O=c1c(O)c(-c2ccc(O)cc2)oc2cc(O)cc(O)c12 [Compound 18, kaempferol] | 100 to 200 | 100 to 200 | 75.8 ± 5.8 | 100 to 200 | 57.4 ± 4.6 | 47.7 ± 3.9 | 100 to 200 | 100 to 200 | 58.4 ± 3.5 | 100 to 200 | 100 to 200 | 55.8 ± 4.5 | > 200 | 62.8 ± 3.5 | 34.4 ± 2.9 | > 200 | 69.8 ± 5.8 | 51.1 ± 3.2 |
| COc1c(O)cc(O)c2c(=O)c(O)c(-c3ccc(O)cc3)oc12 [Compound 19, 8-methoxykaempferol] | 100 to 200 | 100 to 200 | 61.8 ± 3.1 | 100 to 200 | 100 to 200 | 100 to 200 | 100 to 200 | 100 to 200 | 100 to 200 | > 200 | > 200 | 100 to 200 | 100 to 200 | 88.8 ± 7 | 71.9 ± 7 | > 200 | > 200 | 64.8 ± 5 |
